Measured values reported in ChEMBL document CHEMBL4613204, “Lysine demethylase 5B (KDM5B): A potential anti-cancer drug target” (Eur J Med Chem, 2019).
Each block holds one compound with its values, some of them ahead of it.

What was measured:
[1] = target: T1, Lysine-specific demethylase 5B (Homo sapiens, UniProt Q9UGL1); assay: Inhibition of KDM5B (unknown origin)
MCF7 = assay: Antiproliferative activity against human MCF7 cells assessed as growth inhibition; assay type: functional
[2] = Selectivity ratio of GI50 for human […] cells; assay type: functional
[3] = target: Lysine-specific demethylase 5C (Homo sapiens, UniProt P41229); assay: Inhibition of KDM5C (1 to 789 residues) (unknown origin)
Sequence of Lysine-specific demethylase 5C (P41229 whole entry, the tested form may be a part): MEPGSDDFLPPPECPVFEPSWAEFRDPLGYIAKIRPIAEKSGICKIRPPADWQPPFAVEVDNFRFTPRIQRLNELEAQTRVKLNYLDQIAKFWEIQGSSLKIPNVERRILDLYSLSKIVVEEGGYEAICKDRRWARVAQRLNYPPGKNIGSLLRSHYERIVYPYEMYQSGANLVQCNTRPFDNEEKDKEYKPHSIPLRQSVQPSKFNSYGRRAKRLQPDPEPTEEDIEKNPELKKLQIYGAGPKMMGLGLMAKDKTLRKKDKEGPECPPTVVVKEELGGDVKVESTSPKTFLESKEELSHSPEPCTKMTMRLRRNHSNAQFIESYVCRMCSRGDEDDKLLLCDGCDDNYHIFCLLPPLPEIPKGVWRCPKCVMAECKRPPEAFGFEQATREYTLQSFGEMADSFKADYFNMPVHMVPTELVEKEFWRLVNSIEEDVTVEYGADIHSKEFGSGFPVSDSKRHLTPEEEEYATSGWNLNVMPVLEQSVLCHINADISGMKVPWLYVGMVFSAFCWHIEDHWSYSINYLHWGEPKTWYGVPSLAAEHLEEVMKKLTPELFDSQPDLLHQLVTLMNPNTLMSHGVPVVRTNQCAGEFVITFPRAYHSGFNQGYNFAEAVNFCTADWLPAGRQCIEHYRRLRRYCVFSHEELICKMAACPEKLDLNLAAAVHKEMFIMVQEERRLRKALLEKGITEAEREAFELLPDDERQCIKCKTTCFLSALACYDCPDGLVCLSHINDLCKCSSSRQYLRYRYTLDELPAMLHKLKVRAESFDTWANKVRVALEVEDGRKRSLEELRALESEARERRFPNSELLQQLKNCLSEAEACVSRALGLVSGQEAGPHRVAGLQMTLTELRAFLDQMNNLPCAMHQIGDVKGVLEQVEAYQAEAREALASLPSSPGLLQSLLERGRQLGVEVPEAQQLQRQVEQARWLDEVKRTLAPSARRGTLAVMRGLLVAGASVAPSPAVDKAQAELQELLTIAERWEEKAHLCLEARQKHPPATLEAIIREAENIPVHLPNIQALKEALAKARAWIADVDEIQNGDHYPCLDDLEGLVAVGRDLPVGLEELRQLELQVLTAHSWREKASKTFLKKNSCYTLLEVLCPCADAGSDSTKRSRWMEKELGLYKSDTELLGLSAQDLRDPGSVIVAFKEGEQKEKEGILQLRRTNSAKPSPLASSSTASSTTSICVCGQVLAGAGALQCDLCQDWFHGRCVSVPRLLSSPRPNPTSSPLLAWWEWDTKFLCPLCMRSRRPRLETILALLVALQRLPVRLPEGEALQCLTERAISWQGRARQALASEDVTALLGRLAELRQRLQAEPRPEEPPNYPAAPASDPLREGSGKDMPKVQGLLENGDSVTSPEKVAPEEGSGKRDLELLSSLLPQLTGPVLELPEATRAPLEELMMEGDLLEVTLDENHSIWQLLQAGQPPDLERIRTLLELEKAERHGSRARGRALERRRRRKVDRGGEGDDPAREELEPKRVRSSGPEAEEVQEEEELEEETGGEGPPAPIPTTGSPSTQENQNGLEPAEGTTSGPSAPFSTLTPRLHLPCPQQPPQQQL

[4] = target: T1, Lysine-specific demethylase 5B; assay: Inhibition of KDM5B (1 to 755 residues) (unknown origin)
MDA-MB-231 = assay: Antiproliferative activity against human MDA-MB-231 cells assessed as growth inhibition; assay type: functional

T1 sequence (Q9UGL1 whole entry): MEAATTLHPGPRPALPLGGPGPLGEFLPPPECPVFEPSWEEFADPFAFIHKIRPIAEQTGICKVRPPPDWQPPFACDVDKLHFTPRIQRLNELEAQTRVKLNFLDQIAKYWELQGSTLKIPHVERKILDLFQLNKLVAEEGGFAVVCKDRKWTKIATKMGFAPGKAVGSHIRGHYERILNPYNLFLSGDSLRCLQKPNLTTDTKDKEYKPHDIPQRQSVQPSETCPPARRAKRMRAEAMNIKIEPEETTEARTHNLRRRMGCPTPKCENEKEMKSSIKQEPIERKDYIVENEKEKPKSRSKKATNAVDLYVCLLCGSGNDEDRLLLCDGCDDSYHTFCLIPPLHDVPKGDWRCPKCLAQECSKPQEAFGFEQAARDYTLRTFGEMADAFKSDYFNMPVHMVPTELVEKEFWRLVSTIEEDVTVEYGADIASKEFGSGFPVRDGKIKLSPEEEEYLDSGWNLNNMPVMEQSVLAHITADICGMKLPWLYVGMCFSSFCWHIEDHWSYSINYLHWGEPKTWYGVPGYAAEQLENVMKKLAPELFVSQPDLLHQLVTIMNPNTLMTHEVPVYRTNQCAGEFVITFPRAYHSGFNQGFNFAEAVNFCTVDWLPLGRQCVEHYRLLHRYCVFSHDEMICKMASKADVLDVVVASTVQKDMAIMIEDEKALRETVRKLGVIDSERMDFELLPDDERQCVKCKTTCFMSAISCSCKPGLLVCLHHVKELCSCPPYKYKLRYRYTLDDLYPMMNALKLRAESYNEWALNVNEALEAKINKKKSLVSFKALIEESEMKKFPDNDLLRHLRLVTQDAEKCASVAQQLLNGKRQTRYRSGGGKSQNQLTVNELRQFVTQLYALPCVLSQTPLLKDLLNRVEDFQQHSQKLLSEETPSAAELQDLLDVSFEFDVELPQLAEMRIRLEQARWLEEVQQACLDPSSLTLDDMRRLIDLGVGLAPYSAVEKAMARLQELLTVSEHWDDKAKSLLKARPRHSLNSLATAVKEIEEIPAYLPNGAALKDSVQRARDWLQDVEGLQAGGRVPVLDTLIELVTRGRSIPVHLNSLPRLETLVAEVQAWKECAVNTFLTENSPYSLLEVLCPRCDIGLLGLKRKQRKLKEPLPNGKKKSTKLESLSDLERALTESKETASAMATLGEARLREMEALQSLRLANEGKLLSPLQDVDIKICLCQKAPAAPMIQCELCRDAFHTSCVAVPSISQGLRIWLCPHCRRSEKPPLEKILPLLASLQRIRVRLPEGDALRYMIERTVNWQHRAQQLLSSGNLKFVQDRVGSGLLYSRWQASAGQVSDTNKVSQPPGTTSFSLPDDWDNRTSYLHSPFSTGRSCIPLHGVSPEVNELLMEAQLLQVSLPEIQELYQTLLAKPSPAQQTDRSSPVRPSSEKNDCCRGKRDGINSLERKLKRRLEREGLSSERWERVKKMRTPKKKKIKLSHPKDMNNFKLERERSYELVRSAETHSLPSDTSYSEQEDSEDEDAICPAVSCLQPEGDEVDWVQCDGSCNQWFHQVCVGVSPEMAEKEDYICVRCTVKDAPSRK

Structure (SMILES): Cc1ccc(-n2sc3ccccc3c2=O)cc1
IC50 [1]: 3000 nM

GI50 (MCF7): 22 nM
IC50 [3]: 42000 nM
IC50 [4]: 5000 nM
GI50 (MDA-MB-231): 300 nM
Structure (SMILES): Clc1ccc(N/N=C(\c2ccccc2)c2ccccn2)nc1
Selectivity ratio [2]: 14

IC50 [1]: 10 nM
Structure (SMILES): CC(C)c1c(-c2ccccc2)[nH]c2c(C#N)cnn2c1=O

IC50 [1]: 20 nM
Structure (SMILES): CCOC(=O)c1c(O)c2ccncc2[nH]c1=O

IC50 [1]: 800000 nM
Structure (SMILES): O=C(O)CCC(=O)C(=O)O [ALPHA-KETOGLUTARIC ACID]
